Data published in patent US8927559B2, “Quinazolinone-type compounds as CRTH2 antagonists” (Merck Sharp & Dohme Corp., priority 2010, dated 2015).
pKi: −log10 of the molar value. “And” between values parts separate entries of the source, which are not always exact repeats. Equal values may be shown once. Read-outs that look alike come from different tables or passages of the source.

Target: T1, CRTH2 receptor (hCRTH2) (Homo sapiens, UniProt Q9Y5Y4)
T1 construct: expressed in transfected cells; host or cells: HEK cells (HEK-hCRTH2 cell line), membranes
T1 sequence (Q9Y5Y4 1-395): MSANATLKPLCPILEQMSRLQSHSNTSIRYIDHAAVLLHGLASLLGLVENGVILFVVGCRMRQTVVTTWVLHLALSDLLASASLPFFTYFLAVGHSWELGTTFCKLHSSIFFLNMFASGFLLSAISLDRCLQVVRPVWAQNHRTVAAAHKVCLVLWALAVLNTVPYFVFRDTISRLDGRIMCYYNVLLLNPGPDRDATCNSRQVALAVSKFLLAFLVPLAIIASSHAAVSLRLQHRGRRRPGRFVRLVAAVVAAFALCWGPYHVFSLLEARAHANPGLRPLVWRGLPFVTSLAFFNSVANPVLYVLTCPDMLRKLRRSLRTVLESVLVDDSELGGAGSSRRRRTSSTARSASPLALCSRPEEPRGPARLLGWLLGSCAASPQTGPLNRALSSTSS
Test: Radioligand binding assay ([3H]PGD2 competition, membranes of HEK-hCRTH2 cell line)
Details: 3.0 nM [3H]PGD2, HEK-hCRTH2 membranes, 60 min, room temperature
Procedure, shortened: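 Membranes (8-20 μg protein) from HEK cells expressing human CRTH2 were incubated with [3H]PGD2 and competitor in 1% DMSO for 60 min at room temperature. Non-specific binding was defined with excess PGD2. Bound radioactivity was separated by filtration and counted by melt-on scintillation.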

| SMILES | pKi (Ki) | pKi (read-out: Ki) |
| --- | --- | --- |
| O=C(O)CCCCc1nc2cc(C3=NOC(c4ccccc4)(c4ccccc4)C3)ccc2c(=O)n1-c1ccc(F)cc1 [Example 117] | 7.30 to 8.00 |  |
| CC1(c2cccc(C#N)c2)CC(c2ccc3c(=O)n(-c4ccc(F)cc4)c(CCCCC(=O)O)nc3c2)=NO1 (centres unmarked) [Example 118] | 7.30 to 8.00 |  |
| CC1(c2cccc(C#N)c2)CC(c2ccc3c(=O)n(-c4ccc(F)cc4)c(CCCCC(=O)O)nc3c2)=NO1 (centres unmarked) [Example 119] | ≥ 8.00 |  |
| CC1(c2ccc(Cl)cc2)CC(c2ccc3c(=O)n(-c4ccc(F)cc4)c(CCCCC(=O)O)nc3c2)=NO1 (centres unmarked) [Example 120] | ≥ 8.00 |  |
| CC1(c2ccc(F)cc2)CC(c2ccc3c(=O)n(-c4ccc(F)cc4)c(CCCCC(=O)O)nc3c2)=NO1 (centres unmarked) [Example 122] | ≥ 8.00 |  |
| CC1(c2ccc(F)c(F)c2)CC(c2ccc3c(=O)n(-c4ccc(F)cc4)c(CCCCC(=O)O)nc3c2)=NO1 (centres unmarked) [Example 124] |  | ≥ 8.00 |
| CC1(c2cc(F)cc(F)c2)CC(c2ccc3c(=O)n(-c4ccc(F)cc4)c(CCCCC(=O)O)nc3c2)=NO1 (centres unmarked) [Example 125] | ≥ 8.00 |  |
| CC1(c2cc(F)cc(F)c2)CC(c2ccc3c(=O)n(-c4ccc(F)cc4)c(CCCCC(=O)O)nc3c2)=NO1 (centres unmarked) [Example 126] | 7.30 to 8.00 |  |
| O=C(O)CCCCc1nc2cc(C3=NOC(c4ccccc4)(C(F)(F)F)C3)ccc2c(=O)n1-c1ccc(F)cc1 (centres unmarked) [Example 127] |  | 7.30 to 8.00 |
| C=C(c1ccccc1)c1cc(-c2ccc3c(=O)n(-c4ccc(F)cc4)c(CCCCC(=O)O)nc3c2)no1 [Example 128] |  | ≥ 8.00 |
| CC(O)(c1cc(-c2ccc3c(=O)n(-c4ccc(F)cc4)c(CCCCC(=O)O)nc3c2)no1)c1ccccc1F (centres unmarked) [Example 129] |  | ≥ 8.00 |
| CC(O)(c1cccc(F)c1)c1cc(-c2ccc3c(=O)n(-c4ccc(F)cc4)c(CCCCC(=O)O)nc3c2)no1 (centres unmarked) [Example 130] |  | ≥ 8.00 |
| O=C(O)CCCCc1nc2cc(-c3cc(C(O)(c4ccccc4)C(F)(F)F)on3)ccc2c(=O)n1-c1ccc(F)cc1 (centres unmarked) [Example 131] |  | 7.30 to 8.00 |
| CC1(C(O)c2ccc(C#N)cc2)CC(c2ccc3c(=O)n(-c4ccc(F)cc4)c(CCCCC(=O)O)nc3c2)=NO1 (centres unmarked) [Example 132] |  | 7.30 to 8.00 |
| CC(c1ccccc1)c1cc(-c2ccc3c(=O)n(-c4ccc(F)cc4)c(CCCCC(=O)O)nc3c2)no1 (centres unmarked) [Example 133] |  | ≥ 8.00 |
| C[C@@]1([C@H](O)c2cccc(C#N)c2)CC(c2ccc3c(=O)n(-c4ccc(F)cc4)c(CCCCC(=O)O)nc3c2)=NO1 [Example 136] |  | ≥ 8.00 |
| C[C@@]1([C@@H](O)c2cccc(C#N)c2)CC(c2ccc3c(=O)n(-c4ccc(F)cc4)c(CCCCC(=O)O)nc3c2)=NO1 [Example 137] |  | ≥ 8.00 |
| C[C@]1([C@H](O)c2cccc(C#N)c2)CC(c2ccc3c(=O)n(-c4ccc(F)cc4)c(CCCCC(=O)O)nc3c2)=NO1 [Example 138] |  | 7.30 to 8.00 |
| O=C(O)CCCCc1nc2cc(C3=NOC4(CCc5ccccc54)C3)ccc2c(=O)n1-c1ccc(F)cc1 (centres unmarked) [Example 143] |  | 7.30 to 8.00 |
| O=C(O)CCCCc1nc2cc(C3=NOC4(CCc5c(F)cccc54)C3)ccc2c(=O)n1-c1ccc(F)cc1 (centres unmarked) [Example 144] |  | 7.30 to 8.00 |

| SMILES | pKi (Ki) | pKi (read-out: Ki) |
| --- | --- | --- |
| O=C(O)CCCCc1nc2cc(C3=NOC4(C3)Cc3ccccc3C4)ccc2c(=O)n1-c1ccc(F)cc1 [Example 145] |  | ≥ 8.00 |
| CO[C@@H](c1ccccc1)c1cc(-c2ccc3c(=O)n(-c4ccc(F)cc4)c(C(C)CCCC(=O)O)nc3c2)no1 (some centres unmarked) [Example 146] |  | 7.30 to 8.00 |
| CO[C@@H](c1ccccc1)c1cc(-c2ccc3c(=O)n(-c4ccc(F)cc4)c(CCCCC(=O)O)nc3c2)no1 [Example 147] |  | ≥ 8.00 |
| CO[C@H](c1ccccc1)c1cc(-c2ccc3c(=O)n(-c4ccc(F)cc4)c(C(C)CCCC(=O)O)nc3c2)no1 (some centres unmarked) [Example 148] |  | ≥ 8.00 |
| CO[C@H](c1ccccc1)c1cc(-c2ccc3c(=O)n(-c4ccc(F)cc4)c(CCCCC(=O)O)nc3c2)no1 [Example 149] |  | ≥ 8.00 |
| O=C(O)CCCCc1nc2cc(C3=NOC(c4nc5ccc(Cl)cc5o4)C3)ccc2c(=O)n1-c1ccc(F)cc1 (centres unmarked) [Example 150] |  | ≥ 8.00 |
| O=C(O)CCCCc1nc2cc(C3=NOC(c4nc5ccc(Cl)cc5s4)C3)ccc2c(=O)n1-c1ccc(F)cc1 (centres unmarked) [Example 151] |  | ≥ 8.00 |
| O=C(O)CCCCc1nc2cc(C3=NO[C@H](c4nc5ccc(Cl)cc5o4)C3)ccc2c(=O)n1-c1ccc(F)cc1 [Example 152] |  | 7.30 to 8.00 |
| O=C(O)CCCCc1nc2cc(C3=NO[C@@H](c4nc5ccc(Cl)cc5o4)C3)ccc2c(=O)n1-c1ccc(F)cc1 [Example 153] |  | ≥ 8.00 |
| O=C(O)CCCCc1nc2cc(C3=NO[C@H](c4nc5ccc(Cl)cc5s4)C3)ccc2c(=O)n1-c1ccc(F)cc1 [Example 154] |  | ≥ 8.00 |
| O=C(O)CCCCc1nc2cc(C3=NO[C@@H](c4nc5ccc(Cl)cc5s4)C3)ccc2c(=O)n1-c1ccc(F)cc1 [Example 155] |  | ≥ 8.00 |
| O=C(O)C1CC(Cc2nc3cc(-c4cc(Cc5ccc(F)cc5)on4)ccc3c(=O)n2-c2ccc(F)cc2)C1 (centres unmarked) [Example 156] |  | 7.30 to 8.00 |
| O=C(O)CCCCc1nc2cc(-c3cc(-c4ccc(Br)cc4)on3)ccc2c(=O)n1-c1ccc(F)cc1 [Example 157] |  | 7.30 to 8.00 |
| CC1(c2nc3ccc(Cl)cc3o2)CC(c2ccc3c(=O)n(-c4ccc(F)cc4)c(CCCCC(=O)O)nc3c2)=NO1 (centres unmarked) [Example 158] |  | ≥ 8.00 |
| CC1(c2nc3cc(Cl)ccc3o2)CC(c2ccc3c(=O)n(-c4ccc(F)cc4)c(CCCCC(=O)O)nc3c2)=NO1 (centres unmarked) [Example 159] |  | ≥ 8.00 |
| CC1(c2nc3ccccc3[nH]2)CC(c2ccc3c(=O)n(-c4ccc(F)cc4)c(CCCCC(=O)O)nc3c2)=NO1 (centres unmarked) [Example 160] |  | ≥ 8.00 |
| CC1(c2nc3cc(F)ccc3o2)CC(c2ccc3c(=O)n(-c4ccc(F)cc4)c(CCCCC(=O)O)nc3c2)=NO1 (centres unmarked) [Example 161] |  | ≥ 8.00 |
| CC1(c2nc3ccccn3c2Cl)CC(c2ccc3c(=O)n(-c4ccc(F)cc4)c(CCCCC(=O)O)nc3c2)=NO1 (centres unmarked) [Example 162] |  | ≥ 8.00 |
| C[C@@]1(c2nc3cc(F)ccc3o2)CC(c2ccc3c(=O)n(-c4ccc(F)cc4)c(CCCCC(=O)O)nc3c2)=NO1 [Example 163] |  | ≥ 8.00 |
| C[C@]1(c2nc3cc(F)ccc3o2)CC(c2ccc3c(=O)n(-c4ccc(F)cc4)c(CCCCC(=O)O)nc3c2)=NO1 [Example 164] |  | 7.30 to 8.00 |

| SMILES | pKi (Ki) | pKi (read-out: Ki) |
| --- | --- | --- |
| CC1(C(=O)Nc2cc(Cl)c(Cl)cc2O)CC(c2ccc3c(=O)n(-c4ccc(F)cc4)c(CCCCC(=O)O)nc3c2)=NO1 (centres unmarked) [Example 165] |  | 7.30 to 8.00 |
| CC1(C(=O)Nc2cc(F)ccc2O)CC(c2ccc3c(=O)n(-c4ccc(F)cc4)c(CCCCC(=O)O)nc3c2)=NO1 (centres unmarked) [Example 166] |  | ≥ 8.00 |
| C[C@@]1(c2nc3ccccn3c2Cl)CC(c2ccc3c(=O)n(-c4ccc(F)cc4)c(CCCCC(=O)O)nc3c2)=NO1 [Example 167] |  | ≥ 8.00 |
| CC1(c2nc3ccc(F)cc3o2)CC(c2ccc3c(=O)n(-c4ccc(F)cc4)c(CCCCC(=O)O)nc3c2)=NO1 (centres unmarked) [Example 169] |  | ≥ 8.00 |
| CC1(c2nc3ccccc3s2)CC(c2ccc3c(=O)n(-c4ccc(F)cc4)c(CCCCC(=O)O)nc3c2)=NO1 (centres unmarked) [Example 170] | ≥ 8.00 |  |
| CC1(c2cn3ccccc3n2)CC(c2ccc3c(=O)n(-c4ccc(F)cc4)c(CCCCC(=O)O)nc3c2)=NO1 (centres unmarked) [Example 171] |  | ≥ 8.00 |
| C[C@]1(c2nc3ccc(Cl)cc3o2)CC(c2ccc3c(=O)n(-c4ccc(F)cc4)c(CCCCC(=O)O)nc3c2)=NO1 [Example 172] |  | ≥ 8.00 |
| CC1(c2nc3ccc(F)cc3[nH]2)CC(c2ccc3c(=O)n(-c4ccc(F)cc4)c(CCCCC(=O)O)nc3c2)=NO1 (centres unmarked) [Example 174] |  | ≥ 8.00 |
| CC1(c2nc3ccc(Cl)cc3[nH]2)CC(c2ccc3c(=O)n(-c4ccc(F)cc4)c(CCCCC(=O)O)nc3c2)=NO1 (centres unmarked) [Example 175] |  | ≥ 8.00 |
| C[C@]1(c2nc3ccccc3[nH]2)CC(c2ccc3c(=O)n(-c4ccc(F)cc4)c(CCCCC(=O)O)nc3c2)=NO1 [Example 176] |  | ≥ 8.00 |
| C[C@@]1(c2cn3ccccc3n2)CC(c2ccc3c(=O)n(-c4ccc(F)cc4)c(CCCCC(=O)O)nc3c2)=NO1 [Example 178] |  | ≥ 8.00 |
| C[C@@]1(c2nc3ccccc3s2)CC(c2ccc3c(=O)n(-c4ccc(F)cc4)c(CCCCC(=O)O)nc3c2)=NO1 [Example 180] | ≥ 8.00 |  |
| C[C@]1(c2nc3ccccc3s2)CC(c2ccc3c(=O)n(-c4ccc(F)cc4)c(CCCCC(=O)O)nc3c2)=NO1 [Example 181] | ≥ 8.00 |  |
| C[C@@]1(c2nc3ccc(F)cc3[nH]2)CC(c2ccc3c(=O)n(-c4ccc(F)cc4)c(CCCCC(=O)O)nc3c2)=NO1 [Example 182] |  | ≥ 8.00 |
| C[C@]1(c2nc3ccc(F)cc3[nH]2)CC(c2ccc3c(=O)n(-c4ccc(F)cc4)c(CCCCC(=O)O)nc3c2)=NO1 [Example 183] |  | 7.30 to 8.00 |
| C[C@@]1(c2nc3ccc(F)cc3o2)CC(c2ccc3c(=O)n(-c4ccc(F)cc4)c(CCCCC(=O)O)nc3c2)=NO1 [Example 184] |  | ≥ 8.00 and 8.24 |
| C[C@]1(c2nc3ccc(F)cc3o2)CC(c2ccc3c(=O)n(-c4ccc(F)cc4)c(CCCCC(=O)O)nc3c2)=NO1 [Example 185] |  | 7.30 to 8.00 |
| C[C@@]1(c2nc3ccc(Cl)cc3[nH]2)CC(c2ccc3c(=O)n(-c4ccc(F)cc4)c(CCCCC(=O)O)nc3c2)=NO1 [Example 186] |  | ≥ 8.00 |
| C[C@]1(C(=O)Nc2cc(F)ccc2O)CC(c2ccc3c(=O)n(-c4ccc(F)cc4)c(CCCCC(=O)O)nc3c2)=NO1 [Example 189] |  | ≥ 8.00 |
